Reference: US12410192B2, “Compound for inhibiting and inducing degradation of EGFR kinase” (BEIJING TIDE PHARMACEUTICAL CO., LTD., priority 2019, dated 2025)
Where two headings read alike, the source gives them in different places.

Legend:
[1] = tested on: Ba/F3 (EGFR^L858R/T790M/C797S) cells; experiment: Assay of activity on Ba/F3 (EGFR^L858R/T790M/C797S) cells (CTG, 72 h); type: cell-based
Experimental: (§1) 30 nL of the compound dilution was added to a 384-well plate by Echo (Labcyte, Echo550). […] 2. Data Analysis
(§2) The percent inhibition rate (% inhibition) was calculated by the following formula
(§3) [formula] • LUMcmpd: Luminescence value of assay compound. • LUMpositive: Average LUM value of positive drug (Brigatinib) with a concentration of 10 μM. • LUMvehicle: Average LUM value of negative control group without drug treatment.
(§4) The nonlinear regression curve (dose response-variable slope) between the value of inhibition rate (%) and the logarithm of compound concentration was fitted with graphpad prism 8.0, the effect dose curve of compound was drawn, and the IC50 value was calculated. Y=Bottom+(Top−Bottom)/(1+10^((LogIC50−X)*HillSlope)) • X-axis: logarithm of compound concentration; Y axis: inhibition rate (% inhibition). 3.

[2] = tested on: Ba/F3 (EGFR^Del19/T790M/C797S) cells; experiment: Assay of activity on Ba/F3 (EGFR^Del19/T790M/C797S) cells (CTG, 72 h); type: cell-based
Experimental: as §1, §2, §3, §4

EGFR^L858R/T790M/C797S [3] = molecular target: T1, EGFR^L858R/T790M/C797S (Homo sapiens (Human), UniProt P00533, C797S/L858R/T790M); experiment: Assay of inhibitory activity on EGFR (HTRF kinase assay); type: biochemical; details: mutant EGFR kinase
Experimental: Formula of inhibition rate (%): […]
The nonlinear regression curve (dose response-variable slope) between the value of inhibition rate (%) and the logarithm of compound concentration was fitted with graphpad prism 8.0, the effect dose curve of compound was drawn, and IC50 value was calculated.

EGFR^L858R/T790M/C797S [4] = molecular target: T1, EGFR^L858R/T790M/C797S; experiment: Assay of activity of compounds for inducing EGFR^L858R/T790M/C797S protein degradation; type: cell-based; details: Ba/F3 (EGFR^L858R/T790M/C797S) cells
Experimental: In order to further explain the reason why the compounds of the present disclosure have inhibitory activity on Ba/F3 (EGFR^L858R/T790M/C797S) cells, representative compounds D3 was selected to study the mechanism of action of the compounds, and observe their effects on EGFR^L858R/T790M/C797S protein levels.
• Ba/F3 (EGFR^L858R/T790M/C797S) cells were cultured according to the culture conditions recommended by ATCC, and analyzed by index. • Complete medium: 1640 medium, 10% FBS, 1× glutamine, 1× penicillin-streptomycin. • Culture conditions: incubated at 37° C., 95% air, 5% CO2 incubator. (2) Compound Stock Solution:
10 mM stock solution in DMSO, stored at −20° C.
• The cells in the cell culture bottle were collected, and the cells with viability of >90% can be used in the assay. Cells were seeded in a 96-well plate with 40 μL cells, 1*10^5 cells/well. […] (6) Detection: • 1) 1 μg/mL of EGF activated cells were treated for 10 min; • 2) After the compound treatment, lysis buffer was added to lyse cells; 10 μL of cell lysate was transferred to a 384-well plate; in addition, 5 μL of acceptor mix was added to the 384-well plate, and shaken on a shaker for 1-2 min; • 3) 5 μL of donor mix was added to each well; the 384-well plate was sealed, shaken on a shaker for 1-2 min, left in the dark at room temperature overnight, and read with an enzyme labeling instrument. […]

Row | IC50 ([1]; Mus musculus, BaF3) | IC50 ([2]; Ba/F3 EGFR-Del19/T790M/C797S) | IC50 (EGFR^L858R/T790M/C797S [3]) | effect on EGFR^L858R/T790M/C797S protein level (in words) (EGFR^L858R/T790M/C797S [4]; 6 h, dose-dependent) | DC50 (EGFR^L858R/T790M/C797S [4]; 6 h treatment, 0.01 nM to 1000 nM, read-out: DC50 (EGFR^L858R/T790M/C797S protein level)) | Molecule | IC50 [1] | IC50 [2]
1 |  |  |  |  |  | 3-(1-oxo-4-(4-(4-(((R,E)-1^1,2^6,7-trimethyl-3-oxo-5^2,5^3-dihydro-1^1H,5^1H-11-oxa-4-aza-5 (2,1)-benzo[d]imidazole-2 (2,4)-pyridine-1 (4,5)-pyrazolecyclododecan-5^6-yl)methyl)piperazin-1-yl)butyl)isoindol-2-yl)piperidine-2,6-dione [Compound D1] | 2.12 nM | 2.7 nM
2 |  |  |  |  |  | 3-(1-oxo-4-(5-(4-(((R,E)-1^1,2^6,7-trimethyl-3-oxo-5^2,5^3-dihydro-1^1H,5^1H-11-oxa-4-aza-5 (2,1)-benzo[d]imidazole-2 (2,4)-pyridine-1 (4,5)-pyrazolecyclododecan-5^6-yl)methyl)piperazin-1-yl) pent-1-yn-1-yl)isoindol-2-yl)piperidine-2,6-dione [Compound D2] | 3.96 nM | 3.89 nM
3 | 2.88 nM | 3.13 nM | 1.09 nM | significantly reduces | 9.28 nM | Cc1cc2cc(n1)-c1cnn(C)c1OCCC[C@@H](C)CN1/C(=N/C2=O)Nc2ccc(CN3CCN(CCCCCc4cccc5c4CN(C4CCC(=O)NC4=O)C5=O)CC3)cc21 (stereo partly drawn) [Compound D3, 3-(1-oxo-4-(5-(4-(((R,E)-1^1,2^6,7-trimethyl-3-oxo-5^2,5^3-dihydro-1^1H,5^1H-11-oxa-4-aza-5 (2,1)-benzo[d]imidazole-2 (2,4)-pyridine-1 (4,5)-pyrazolecyclododecan-5^6-yl)methyl)piperazin-1-yl)pentyl)isoindol-2-yl)piperidine-2,6-dione] |  | 
4 | 11.6 nM | 10.7 nM | 35.9 nM |  |  | Cc1cc2cc(n1)-c1cnn(C)c1OCCC[C@@H](C)CN1/C(=N/C2=O)Nc2ccc(CN3CCN(CCCCCCCc4cccc5c4CN(C4CCC(=O)NC4=O)C5=O)CC3)cc21 (stereo partly drawn) [Compound D5, 3-(1-oxo-4-(7-(4-(((R,E)-1^1,2^6,7-trimethyl-3-oxo-5^2,5^3-dihydro-1^1H,5^1H-11-oxa-4-aza-5 (2,1)-benzo[d]imidazole-2 (2,4)-pyridine-1 (4,5)-pyrazolecyclododecan-5^6-yl)methyl)piperazin-1-yl)heptyl)isoindol-2-yl)piperidine-2,6-dione] |  | 

Row | Molecule | IC50 ([1]; Mus musculus, BaF3) | IC50 ([2]; Ba/F3 EGFR-Del19/T790M/C797S) | IC50 (EGFR^L858R/T790M/C797S [3]) | effect on EGFR^L858R/T790M/C797S protein level (in words) (EGFR^L858R/T790M/C797S [4]; 6 h, dose-dependent) | DC50 (EGFR^L858R/T790M/C797S [4]; 6 h treatment, 0.01 nM to 1000 nM, read-out: DC50 (EGFR^L858R/T790M/C797S protein level)) | IC50 [1] | IC50 [2]
5 | Cc1cc2cc(n1)-c1cnn(C)c1OCCC[C@@H](C)CN1/C(=N/C2=O)Cc2ccc(CN3CCN(CCCCCCc4cccc5c4CN(C4CCC(=O)NC4=O)C5=O)CC3)cc21 (stereo partly drawn) [Compound D4, 3-(1-oxo-4-(6-(4-(((R,E)-1^1,2^6,7-trimethyl-3-oxo-5^2,5^3-dihydro-1^1H,5^1H-11-oxa-4-aza-5 (2,1)-benzo[d]imidazole-2 (2,4)-pyridine-1 (4,5)-pyrazolecyclododecan-5^6-yl)methyl)piperazin-1-yl)hexyl)isoindol-2-yl)piperidine-2,6-dione] |  |  | 10.1 nM |  |  | 4.39 nM | 4.41 nM
6 | C=CC(=O)Nc1cc(Nc2nccc(-c3cn(C)c4ccccc34)n2)c(OC)cc1N(C)CCN(C)C [Osimertinib, reference compound] | > 1000 nM | > 1000 nM |  |  |  |  | 
